Experimental data: PubChem BioAssay AID602210 (Sanford-Burnham Center for Chemical Genomics, 2012)
Activity calls are given as the source filed them. No rule for the calls is given here.

Experiment: modulators of 2-deoxyglucose-induced H9c2 death, dose response, myocardial damage modulator project, cell-based, ATPlite luminescence, rat, set 2 (AID 602210)
Settings: H9c2 rat cardiomyoblasts, 2-deoxyglucose-induced death, 2 h

Structure (SMILES)	IC50
NC(=O)c1nsc(C(=O)N(c2ccccc2)C(C(=O)NCc2ccc(F)cc2)c2ccc(O)cc2)c1N (stereo not given)	9.29 µM
CCN(C[C@H]1N[C@@](C)(C(=O)OC)[C@H]2C(=O)N(Cc3ccccc3)C(=O)[C@@H]12)C(=O)c1ccc(C(C)(C)C)cc1	17.9 µM (inactive)
COc1cc2nc(C3CCC3)nc(N3CCN(c4ccccn4)CC3)c2cc1OC	> 79 µM (inactive)
COc1ccc(N/C=C(\C#N)c2nc3ccccc3n2C)c(OC)c1	> 79 µM (inactive)
COc1cccc(/C=N/NC(=O)c2nc(-c3ccccc3)cc(-c3ccccc3)n2)c1	> 79 µM (inactive)
Cc1cc(C)c2c(N)c(C(=O)N/N=C/c3cccnc3)sc2n1	25.5 µM (inactive)
NC(=O)c1ccc(Nc2nnc(-c3ccc(O)cc3)c3ccccc23)cc1	34.2 µM (inactive)
COc1ccc(-c2cc(C(=O)N(C)Cc3ccccc3F)c3ccccc3n2)cc1OC	13.5 µM (inactive)
C=CCn1cnc2c(c1=O)c1nc3ccccc3nc1n2/N=C/c1cc(OC)c(OC)c(OC)c1	2.64 µM
CCOC(=O)c1cccc(Nc2nc(-c3cccnc3)nc3ccccc23)c1	> 79 µM (inactive)
C#CCOc1nc(Nc2cccc([N+](=O)[O-])c2)nc(OCC#C)n1	24.9 µM (inactive)
COc1cc(Nc2nc3ccccc3n3nnnc23)cc(OC)c1OC	8.82 µM
NC(=O)c1oc2ccccc2c1NC(=O)c1ccco1	32.2 µM (inactive)
COc1cc(/C=N/NC(=O)c2cccnc2)ccc1OCC(=O)Nc1ccccc1Cl	7.84 µM
c1cncc(-c2nc(NCC3COc4ccccc4O3)c3ccccc3n2)c1 (stereo not given)	> 79 µM (inactive)
COc1ccc(COc2cc(-c3cccc(OC)c3)nc3ccc(NC(=O)c4ccc(OC)cc4)cc23)cc1	4.21 µM
COc1cccc(NC(=O)c2oc3ccc(S(=O)(=O)N4CCOCC4)cc3c2C)c1	19.5 µM (inactive)
CC(=O)Nc1cccc(-c2cc(NC=O)c3ncc(-c4cccc(C(C)=O)c4)n3c2)c1	11 µM (inactive)
COc1cccc(-c2cnc3c(NC(C)=O)cc(-c4cccc(NS(C)(=O)=O)c4)cn23)c1	15.4 µM (inactive)
CCOC(=O)N1CCc2c(sc(NC(=O)CN3CCOCC3)c2C(=O)Nc2ccccc2)C1	> 79 µM (inactive)
CC(=O)c1ccc(-c2cnc3c(NC=O)cc(-c4cccc(C(=O)N(C)C)c4)cn23)cc1	12.2 µM (inactive)
N#C/C(=C\c1ccc(-c2cccc([N+](=O)[O-])c2)o1)C(=O)NCCN1CCOCC1	> 79 µM (inactive)
O=C(Nc1ccc(C(=O)N2CCOCC2)cc1)c1cnn2c(C(F)F)cc(-c3ccccc3)nc12	> 79 µM (inactive)

Structure (SMILES)	IC50
CC1Nc2ncnc(N3CCN(c4ccccc4)CC3)c2N(Cc2ccc(Br)cc2)C1=O (stereo not given)	> 79 µM (inactive)
Cc1ccc(Cn2c(CCNc3nc(-c4ccc(Cl)c([N+](=O)[O-])c4)cs3)nc3cc(C(=O)NCCCO)ccc32)cc1	> 79 µM (inactive)
O=C(Nc1ccc2c(c1)OCO2)c1cnn2c(C(F)(F)F)cc(-c3ccco3)nc12	> 79 µM (inactive)
COc1ccc(NC(=O)c2oc3ccc(S(=O)(=O)N4CCOCC4)cc3c2C)cc1	15.3 µM (inactive)
CCOC(=O)N1CCC(n2c(SCC(=O)N3CCC(C)CC3)nc3ccccc3c2=O)CC1	31.6 µM (inactive)
COc1ccc(C(C(=O)NCc2ccccc2)N(Cc2cccs2)C(=O)c2cnccn2)cc1 (stereo not given)	23 µM (inactive)
COc1cc(/C=C/c2nc3ccccc3c(=O)n2-c2ccc(O)cc2)ccc1O	> 79 µM (inactive)
COc1ccc(-c2ccc3c(c2)S(=O)(=O)c2cccc(C(=O)NC[C@@H]4CCCO4)c2C3=O)cc1OC	13.4 µM (inactive)
CC(C)CC(C(=O)NC1CCCCC1)N(Cc1cccs1)C(=O)c1snc(C(N)=O)c1N (stereo not given)	29.3 µM (inactive)
CCCCNC(=O)c1cn(-c2ccc(OCC)cc2)c(=O)c2cc(OC)c(OC)cc12	39.2 µM (inactive)
Cc1cc(NC(=O)c2cccs2)cc(-c2nc3ncccc3o2)c1O	> 79 µM (inactive)
CC(=O)N1CCN(c2ccccc2NC(=O)c2ccc(-c3cccc([N+](=O)[O-])c3)o2)CC1	6.88 µM
COc1cc(NC(=O)c2c(OC)cccc2OC)ccc1NC(=O)c1cc2ccccc2o1	13.4 µM (inactive)
COc1ccc(-c2oc3c(OC)c(OC)c(OC)c(O)c3c(=O)c2OC)cc1OC	> 79 µM (inactive)
CC(=O)c1ccc(-c2cnc3c(NC=O)cc(-c4cccc(NS(C)(=O)=O)c4)cn23)cc1	18 µM (inactive)
Cc1ccccc1C1c2[nH]c3ccccc3c2C[C@H]2C(=O)N(c3ccccc3C(=O)NCCCN3CCOCC3)C(=O)N12 (stereo not given in full)	46 µM (inactive)
CCC(=O)Nc1cccc(-c2nnc(-c3cccc(NC(=O)CC)c3)o2)c1	> 79 µM (inactive)
CC(=O)Nc1ccc(S(=O)(=O)N(Cc2ccco2)Cc2cc3ccccc3[nH]c2=O)cc1	8.86 µM
COc1ccc(NC(=O)c2cc3c(=O)n(C)c4ccccc4c3n2C)cc1OC	> 79 µM (inactive)
CN(C)C(=O)/C=C\c1cn(-c2ccccc2)nc1-c1ccc2c(c1)OCCO2	29.4 µM (inactive)
COc1cc(/C=C/c2nc(-c3ccccc3O)n[nH]2)cc(OC)c1OC	> 79 µM (inactive)
NC(=O)c1cc2ccccc2o/c1=N\NC(=O)c1ccc(F)cc1	7.99 µM
O=C(NC1CCCCC1)C(c1ccc2ncccc2c1)N(Cc1cccs1)C(=O)c1cccs1 (stereo not given)	27.4 µM (inactive)

Structure (SMILES)	IC50
O=C(Nc1nc(-c2ccccn2)cs1)c1ccc(-c2ccccc2F)o1	> 79 µM (inactive)
COc1cc(/C=N/NC(=O)NC23CC4CC(CC(C4)C2)C3)ccc1OCC(N)=O	7.76 µM
Cc1ccc(-c2nnc3ccc(SCC(=O)N4CCCc5ccccc54)nn23)cc1	14 µM (inactive)
COc1ccc(-c2cc(C(=O)N(C)Cc3nc4ccccc4c(=O)[nH]3)c3ccccc3n2)cc1OC	10.3 µM (inactive)
Cc1ccc(-c2nn3c(-c4ccco4)nnc3c3ccccc23)cc1S(=O)(=O)NCC1CCCO1 (stereo not given)	27.1 µM (inactive)
COc1ccc(-c2cc(-c3ccc(O)cc3)nc(N)c2C#N)cc1OC	> 79 µM (inactive)
CC(=O)Nc1ccc(Nc2nc(-c3sc(NC(C)=O)nc3C)cs2)cc1	18.8 µM (inactive)
COc1cc(OC)cc(C(=O)Nc2ccc(-c3nc4ccccc4o3)cc2)c1	13.7 µM (inactive)
O=C(CN1CCCCC1)Nc1nc(-c2ccc(F)c(F)c2)cs1	> 79 µM (inactive)
COCCn1ccc2c(OCC(=O)Nc3ccccc3OC)cccc2c1=O	22.1 µM (inactive)
NC(=O)c1nsc(C(=O)N(c2ccccc2F)C(C(=O)NCc2ccc(F)cc2)c2ccc(O)cc2)c1N (stereo not given)	3.13 µM
O=C(N/N=C/c1ccc(-c2cccc([N+](=O)[O-])c2)o1)c1ccc([N+](=O)[O-])cc1	11.8 µM (inactive)
COc1ccc(OC)c(NC(=O)COC(=O)c2c3c(nc4ccccc24)CCCC3)c1	7.78 µM
COc1cc(C(=O)NCC(=O)N/N=C/c2ccc(-c3cccc([N+](=O)[O-])c3)o2)cc(OC)c1OC	17.5 µM (inactive)
COc1cccc(/C=N/Nc2nc3ccccc3n3cnnc23)c1	3.49 µM
COc1ccccc1-c1cc(NC=O)c2ncc(-c3cccc(C(C)=O)c3)n2c1	> 79 µM (inactive)
COc1ccc(NC(=O)c2cc(-c3ccc(OC)c(OC)c3)nc3ccccc23)c(OC)c1	> 79 µM (inactive)
COc1cc(C(=O)N/N=C/c2ccc(OC(=O)c3ccccc3Cl)cc2)ccc1O	> 79 µM (inactive)
COc1cc(/C=C(\C#N)C(=O)Nc2ccccc2F)ccc1OCCN1CCOCC1	41.2 µM (inactive)
O=C(Nc1ccccc1)c1nc[nH]c1C(=O)NCCCCNC(=O)c1[nH]cnc1C(=O)Nc1ccccc1	4.11 µM
COc1ccc2c(c1OC)c(=O)n1c3ccc(OC(C)C(=O)NCCN4CCOCC4)cc3c3ccnc2c31 (stereo not given)	46.6 µM (inactive)
COc1ccc2c(c1OC)C(=O)N1c3ccccc3C(=O)N(c3ccccc3)C21 (stereo not given)	8.7 µM
CCN(CC)S(=O)(=O)c1ccc(N2CCOCC2)c(NC(=O)c2cc(-c3ccccn3)nc3ccccc23)c1	4.51 µM

Structure (SMILES)	IC50
N#Cc1cnn2cc(-c3ncc(C(F)(F)F)cc3Cl)cnc12	47.7 µM (inactive)
CCCNC(=O)c1c(N)n(-c2cccc(OC)c2)c2nc3ccccc3nc12	14.9 µM (inactive)
COc1cc(-c2cc(NC(C)=O)c3ncc(-c4ccc(F)cc4)n3c2)cc(OC)c1OC	8.78 µM
Nc1nonc1-n1nnc(C(=O)N/N=C/c2ccccn2)c1CNc1ccccc1	41.4 µM (inactive)
COC(=O)c1ccccc1NC(=O)/C=C/c1cc(OC)c(OC)c(OC)c1	> 79 µM (inactive)
CC(=O)Nc1cc(-c2ccc(C(=O)NC3CC3)cc2)cn2c(-c3cccc(C(C)=O)c3)cnc12	23.3 µM (inactive)
CCn1cc(C(=O)Nc2cccc(NC(C)=O)c2)c2cc(OC)c(OC)cc2c1=O	39.1 µM (inactive)
Cc1cccc(NC(=O)c2oc3ccc(S(=O)(=O)N4CCOCC4)cc3c2C)c1C	11 µM (inactive)
O=C(c1ccco1)N1CCN(C(=O)c2cc(-c3ccncc3)nc3ccc(Br)cc23)CC1	25.8 µM (inactive)
NS(=O)(=O)c1ccc(N=Cc2c(O)n(-c3nccs3)c(=O)c3ccccc23)cc1	37.2 µM (inactive)
N#C/C(=C\c1cn(-c2ccccc2)nc1-c1cccnc1)c1nnc2n1CCCCC2	30.2 µM (inactive)
COc1cc(OC)cc(C(=O)Nc2ccc(C(=O)Nc3ccccc3OC)cc2)c1	16.6 µM (inactive)
COc1ccc(-n2cc(-c3ccccc3)c3c(N4CCOCC4)ncnc32)cc1	6.04 µM
O=C(CNC(=O)c1nc[nH]c1C(=O)NCc1ccccc1)OCc1ccccc1	5.21 µM
COc1ccc(C=CC(=O)c2ccc3cc(OC)c(OC)cc3c2)cc1OC	11.7 µM (inactive)
CCN(CC)C(=O)c1ccc(-c2nnc(Nc3ccc(O)cc3)c3ccccc23)cc1	44.2 µM (inactive)
Nc1c(C(=O)N/N=C/c2cccnc2)oc2nc(-c3ccco3)cc(-c3ccco3)c12	1.63 µM
COc1ccccc1-c1cc(NC(C)=O)c2ncc(-c3cccc(C(C)=O)c3)n2c1	> 79 µM (inactive)
CCCC(=O)Nc1nc2ccc(NC(=O)c3ccc(Br)o3)cc2s1	> 79 µM (inactive)
CCOc1ccc(CCNC(=O)c2cc3c(C)nccc3[nH]c2=O)cc1OCC	8.64 µM
O=C(CN1C(=O)C2CC=CCC2C1=O)Nc1nc(-c2ccc(F)cc2)cs1 (stereo not given)	> 79 µM (inactive)
